Data reported in patent US20220281863A1, “COMPOUNDS, COMPOSITIONS AND METHODS OF TREATING DISORDERS” (Reverie Labs, Inc., priority 2019, published 2022).

Molecular target: T1, CDK9/CycTI (Homo sapiens, UniProt P50750)
T1 construct: purchased Carna biosciences 04-110
Test: In vitro kinase assay (ADP-Glo Kinase Assay Kit), CDK9/CycTI
Format: biochemical
Conditions: 30 ng CDK9/CycTI, 30 μM CDKtide, 10 μM ATP, 2 hours at room temperature; 8 to 10-point dose response (Tier2); read-out: IC50 Score
Procedure: In vitro kinase assay was performed in white, 384-low volume plates in 5 μl reaction volume consisting of 30 ng CDK9/CycTI (Carna biosciences #04-110), 30 μM CDKtide (Signalchem #C06-58) and 10 μM ATP made in reaction buffer (40 mM Tris, pH 7.5; 20 mM MgCl2; 0.1 mg/ml BSA; 50 μM DTT) at 1 μM & 10 μM compound concentration for Tier1 assay and 8 to 10-point dose response curve for Tier2 assay. After 2 hours of incubation at room temperature, the amounts of […] in the kinase reaction were quantified using ADP-Glo™ Kinase Assay Kit (Promega #V9102). Briefly, 5 μl of ADP-Glo™ reagent was added to stop the kinase reaction and plate was incubated for 40 minutes at room temperature. Subsequently, 10 μl of Kinase Detection Reagent was added and luminescence was recorded after 30 minutes of incubation at room temperature.
The inhibition of kinase activity was determined relative to positive control (2% DMSO) and IC50 was calculated using GraphPad prism software (four parameter-variable slope equation).

T1 sequence (P50750 whole entry): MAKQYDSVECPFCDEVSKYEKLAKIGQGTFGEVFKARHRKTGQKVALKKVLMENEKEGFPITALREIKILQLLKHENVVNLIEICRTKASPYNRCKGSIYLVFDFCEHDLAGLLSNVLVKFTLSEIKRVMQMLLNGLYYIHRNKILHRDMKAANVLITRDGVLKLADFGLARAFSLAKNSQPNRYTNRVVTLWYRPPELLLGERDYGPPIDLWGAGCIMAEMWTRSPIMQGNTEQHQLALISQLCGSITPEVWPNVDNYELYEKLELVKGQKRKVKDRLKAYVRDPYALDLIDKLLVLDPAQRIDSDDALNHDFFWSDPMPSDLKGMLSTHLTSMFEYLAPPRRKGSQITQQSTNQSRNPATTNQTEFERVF
T1 sequence (O60563 whole entry partner): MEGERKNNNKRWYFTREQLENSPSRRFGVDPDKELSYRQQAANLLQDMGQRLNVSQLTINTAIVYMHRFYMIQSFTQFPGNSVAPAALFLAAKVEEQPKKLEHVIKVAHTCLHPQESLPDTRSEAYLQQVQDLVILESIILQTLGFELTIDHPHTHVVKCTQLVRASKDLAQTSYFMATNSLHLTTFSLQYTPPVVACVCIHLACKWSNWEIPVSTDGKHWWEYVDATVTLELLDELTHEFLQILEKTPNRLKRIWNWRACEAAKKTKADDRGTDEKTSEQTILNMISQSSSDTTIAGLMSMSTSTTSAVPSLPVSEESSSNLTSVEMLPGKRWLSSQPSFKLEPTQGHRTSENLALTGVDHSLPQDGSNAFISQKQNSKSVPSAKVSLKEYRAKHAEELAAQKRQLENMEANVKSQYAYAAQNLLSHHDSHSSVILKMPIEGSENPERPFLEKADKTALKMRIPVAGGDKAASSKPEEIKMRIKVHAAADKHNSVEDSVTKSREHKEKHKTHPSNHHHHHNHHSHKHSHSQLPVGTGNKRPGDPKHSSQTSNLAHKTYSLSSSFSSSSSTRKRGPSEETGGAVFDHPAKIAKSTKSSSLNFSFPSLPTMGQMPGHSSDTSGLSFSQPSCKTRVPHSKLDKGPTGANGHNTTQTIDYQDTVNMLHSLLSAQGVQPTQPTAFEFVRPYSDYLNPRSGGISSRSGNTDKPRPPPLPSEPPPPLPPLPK

Compound | IC50
CC(=O)N1CC[C@@H]1C(=O)Nc1nc2ccc3cc(F)ccc3c2s1 [Compound 69, (R)-1-acetyl-N-(7-fluoronaphtho[2,1-d]thiazol-2-yl)azetidine-2-carboxamide] | 1 to 100 nM
O=C(Nc1nc2ccc3cc(F)ccc3c2s1)C1CCNCC1 [Compound 43] | 100 to 500 nM
CC(C)(C)OC(=O)N1CCC[C@H](C(=O)Nc2nc3ccc4cc(F)ccc4c3s2)C1 [Compound 62, tert-butyl (S)-3-((7-fluoronaphtho[2,1-d]thiazol-2-yl)carbamoyl)piperidine-1-carboxylate] | 1000 to 20000 nM
O=C(Nc1nc2ccc3ccccc3c2s1)[C@H]1CCCN1 [Compound 2, (R)—N-(naphtho[2,1-d]thiazol-2-yl)pyrrolidine-2-carboxamide] | 1000 to 20000 nM
CC(=O)N1CCOC[C@@H]1C(=O)Nc1nc2ccc3cc(F)ccc3c2s1 [Compound 19, (R)-4-acetyl-N-(7-fluoronaphtho[2,1-d]thiazol-2-yl)morpholine-3-carboxamide] | 1 to 100 nM
O=C1CC[C@H](C(=O)Nc2nc3ccc4cc(F)ccc4c3s2)N1 [Compound 7, (R)—N-(7-fluoronaphtho[2,1-d]thiazol-2-yl)-5-oxopyrrolidine-2-carboxamide] | 1 to 100 nM
CC(=O)N(C)[C@@H]1CCC[C@H](C(=O)Nc2nc3ccc4cc(F)ccc4c3s2)C1 [Compound 22] | 100 to 500 nM
CC(=O)N[C@H]1CCC[C@@H](C(=O)Nc2nc3ccc4cc(F)ccc4c3s2)C1 [Compound 79, (1R,3S)-3-acetamido-N-(7-fluoronaphtho[2,1-d]thiazol-2-yl)cyclohexane-1-carboxamide] | 1 to 100 nM
CC(C)(C)OC(=O)N1CC[C@H]1C(=O)Nc1nc2ccc3cc(F)ccc3c2s1 [Compound 84, Tert-butyl (S)-2-((7-fluoronaphtho[2,1-d]thiazol-2-yl)carbamoyl)azetidine-1-carboxylate] | 1000 to 20000 nM
O=C(Nc1nc2ccc3cc(F)ccc3c2s1)[C@H]1CCNC1 [Compound 31, (S)—N-(7-fluoronaphtho[2,1-d]thiazol-2-yl)pyrrolidine-3-carboxamide] | 100 to 500 nM
CC(=O)N1CCC(C(=O)Nc2nc3ccc4cc(F)ccc4c3s2)CC1 [Compound 86] | 1 to 100 nM
CC(C)(C)OC(=O)N[C@@H]1CC[C@H](C(=O)Nc2nc3ccc4cc(F)ccc4c3s2)C1 [Compound 34] | 100 to 500 nM
C=CC(=O)N[C@@H]1CCC[C@H](C(=O)Nc2nc3ccc4cc(F)ccc4c3s2)C1 [Compound 41, (1S,3R)-3-acrylamido-N-(7-fluoronaphtho[2,1-d]thiazol-2-yl)cyclohexane-1-carboxamide] | 1 to 100 nM
CC(C)(C)OC(=O)N[C@H]1CCC[C@H](C(=O)Nc2nc3ccc4cc(F)ccc4c3s2)C1 [Compound 46] | 500 to 1000 nM
CC(C)(C)OC(=O)N[C@H]1CCC[C@@H](C(=O)Nc2nc3ccc4cc(F)ccc4c3s2)C1 [Compound 30, Tert-butyl ((1S,3R)-3-((7-fluoronaphtho[2,1-d]thiazol-2-yl)carbamoyl)cyclohexyl) carbamate] | 100 to 500 nM
CC(=O)N1CCCC[C@H]1C(=O)Nc1nc2ccc3cc(F)ccc3c2s1 [Compound 27, (S)-1-acetyl-N-(7-fluoronaphtho[2,1-d]thiazol-2-yl)piperidine-2-carboxamide] | 1 to 100 nM
CC(C)(C)OC(=O)N1CCC[C@@H]1C(=O)Nc1nc2ccc3ccccc3c2s1 [Compound 1, tert-Butyl (R)-2-(naphtho[2,1-d]thiazol-2-ylcarbamoyl)pyrrolidine-1-carboxylate] | 1000 to 20000 nM
CC(=O)N1CCC[C@@H](C(=O)Nc2nc3ccc4cc(F)ccc4c3s2)C1 [Compound 38, 1-acetyl-N-(7-fluoronaphtho[2,1-d]thiazol-2-yl)piperidine-3-carboxamide] | 100 to 500 nM
CS(=O)(=O)N[C@@H]1CCC[C@H](C(=O)Nc2nc3ccc4cc(F)ccc4c3s2)C1 [Compound 13-a, (1S,3R)—N-(7-fluoronaphtho[2,1-d]thiazol-2-yl)-3-(methylsulfonamido)cyclohexane-1-carboxamide] | 1 to 100 nM
CC(=O)N1CCC(C(=O)Nc2nc3ccc4cc(F)ccc4c3s2)C1 (single isomer, unassigned) [Compound 82, 1-acetyl-N-(7-fluoronaphtho[2,1-d]thiazol-2-yl)pyrrolidine-3-carboxamide] | 100 to 500 nM
CC(=O)N[C@@H]1CC[C@H](C(=O)Nc2nc3ccc4cc(F)ccc4c3s2)C1 [Compound 25] | 500 to 1000 nM
CC(=O)N1CCCC[C@@H]1C(=O)Nc1nc2ccc3cc(F)ccc3c2s1 [Compound 21] | 1 to 100 nM

Compound | IC50
CC(=O)Nc1nc2ccc3cc(F)ccc3c2s1 [Compound 12, N-(7-fluoronaphtho[2,1-d]thiazol-2-yl)acetamide] | 100 to 500 nM
O=C(Nc1nc2ccc3cc(F)ccc3c2s1)[C@@H]1CCCCN1 [Compound 68] | 500 to 1000 nM
CC(=O)N1CCC[C@H]1C(=O)Nc1nc2ccc3cc(F)ccc3c2s1 [Compound 5, (S)-1-acetyl-N-(7-fluoronaphtho[2,1-d]thiazol-2-yl)pyrrolidine-2-carboxamide] | 1000 to 20000 nM
CC(=O)N1CCNCC1C(=O)Nc1nc2ccc3cc(F)ccc3c2s1 (single isomer, unassigned) [Compound 18-a, 1-acetyl-N-(7-fluoronaphtho[2,1-d]thiazol-2-yl)piperazine-2-carboxamide] | 100 to 500 nM
CC(=O)N1CCNCC1C(=O)Nc1nc2ccc3cc(F)ccc3c2s1 (single isomer, unassigned) [Compound 18-b, 1-acetyl-N-(7-fluoronaphtho[2,1-d]thiazol-2-yl)piperazine-2-carboxamide] | 1000 to 20000 nM
O=C(Nc1nc2ccc3cc(F)ccc3c2s1)C1CCNC1 (racemic) [Compound 83, N-(7-fluoronaphtho[2,1-d]thiazol-2-yl)pyrrolidine-3-carboxamide] | 1 to 100 nM
O=C(Nc1nc2ccc3cc(F)ccc3c2s1)[C@@H]1CCCO1 [Compound 78, (S)—N-(7-fluoronaphtho[2,1-d]thiazol-2-yl)tetrahydrofuran-2-carboxamide] | 100 to 500 nM
CC(=O)N[C@H]1CCC[C@H](C(=O)Nc2nc3ccc4cc(F)ccc4c3s2)C1 [Compound 16, (1S,3S)-3-acetamido-N-(7-fluoronaphtho[2,1-d]thiazol-2-yl)cyclohexane-1-carboxamide] | 1 to 100 nM
O=C(Nc1nc2ccc3cc(F)ccc3c2s1)[C@@H]1CCN1 [Compound 85, (S)—N-(7-fluoronaphtho[2,1-d]thiazol-2-yl)azetidine-2-carboxamide] | 100 to 500 nM
O=C(Nc1nc2ccc3cc(F)ccc3c2s1)[C@@H]1CCCN1 [Compound 47, (S)—N-(7-fluoronaphtho[2,1-d]thiazol-2-yl)pyrrolidine-2-carboxamide] | 500 to 1000 nM
CS(=O)(=O)N1CCC[C@@H]1C(=O)Nc1nc2ccc3cc(F)ccc3c2s1 [Compound 9, (R)—N-(7-fluoronaphtho[2,1-d]thiazol-2-yl)-1-(methylsulfonyl)pyrrolidine-2-carboxamide] | 1 to 100 nM
O=C1CC[C@@H](C(=O)Nc2nc3ccc4cc(F)ccc4c3s2)N1 [Compound 8, (S)—N-(7-fluoronaphtho[2,1-d]thiazol-2-yl)-5-oxopyrrolidine-2-carboxamide] | 1 to 100 nM
O=C(Nc1nc2ccc3cc(F)ccc3c2s1)[C@H]1CCCCN1 [Compound 20] | 1000 to 20000 nM
O=C(CCl)N[C@@H]1CCC[C@H](C(=O)Nc2nc3ccc4cc(F)ccc4c3s2)C1 [Compound 75] | 1 to 100 nM
CC(=O)N[C@@H]1CCC[C@H](C(=O)Nc2nc3ccc4cc(F)ccc4c3s2)C1 [Compound 14, (1S,3R)-3-acetamido-N-(7-fluoronaphtho[2,1-d]thiazol-2-yl)cyclohexane-1-carboxamide] | 1 to 100 nM
N[C@@H]1CC[C@H](C(=O)Nc2nc3ccc4cc(F)ccc4c3s2)C1 [Compound 26] | 1 to 100 nM
O=C(Nc1nc2ccc3cc(F)ccc3c2s1)C1CCNC1 (single isomer, unassigned) [Compound 37, N-(7-fluoronaphtho[2,1-d]thiazol-2-yl)pyrrolidine-3-carboxamide] | 1 to 100 nM
O=C(Nc1nc2ccc3cc(F)ccc3c2s1)[C@H]1CCCN1 [Compound 74] | 500 to 1000 nM
O=C(Nc1nc2ccc3cc(F)ccc3c2s1)[C@H]1CCN1 [Compound 90, (R)—N-(7-fluoronaphtho[2,1-d]thiazol-2-yl)azetidine-2-carboxamide] | 500 to 1000 nM
CC(=O)N1CCC[C@@H]1C(=O)Nc1nc2ccc3cc(Cl)ccc3c2s1 [Compound 17, (R)-1-acetyl-N-(7-chloronaphtho[2,1-d]thiazol-2-yl)pyrrolidine-2-carboxamide] | 1 to 100 nM
O=C(Nc1nc2ccc3cc(F)ccc3c2s1)[C@H]1CCC[C@@H](NS(=O)(=O)C2CC2)C1 [Compound 15-a, (1S,3R)-3-(cyclopropanesulfonamido)-N-(7-fluoronaphtho[2,1-d]thiazol-2-yl)cyclohexane-1-carboxamide] | 1 to 100 nM
